Test results: publication PMC5679212 (The Biochemical journal, 2014)

How the values were obtained:
Type in all cases: binding
TYK2(JH2) = TYK2(JH2) (Homo sapiens, UniProt P29597); assay: thermal-shift assay
[1] = target: ULK4 (unc-51 like kinase 4) (Homo sapiens, UniProt Q96C45); assay: thermal-shift assay
[2] = target: T1, EphB6 (Ephrin type-B receptor 6) (Homo sapiens, UniProt O15197); assay: thermal-shift assay
T1 sequence (O15197 670-919 limits assumed): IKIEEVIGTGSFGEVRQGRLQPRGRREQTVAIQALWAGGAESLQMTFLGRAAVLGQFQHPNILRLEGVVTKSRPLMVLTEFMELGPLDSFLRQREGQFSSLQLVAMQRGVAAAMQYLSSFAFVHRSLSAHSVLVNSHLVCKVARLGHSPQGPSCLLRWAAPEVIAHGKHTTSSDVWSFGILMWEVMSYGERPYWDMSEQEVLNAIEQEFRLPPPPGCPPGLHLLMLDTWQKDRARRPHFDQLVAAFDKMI

[3] = target: T2, MLKL (mixed lineage kinase domain-like) (Homo sapiens, UniProt Q8NB16); assay: ITC and thermal-shift assay
T2 sequence (Q8NB16 190-471 limits assumed): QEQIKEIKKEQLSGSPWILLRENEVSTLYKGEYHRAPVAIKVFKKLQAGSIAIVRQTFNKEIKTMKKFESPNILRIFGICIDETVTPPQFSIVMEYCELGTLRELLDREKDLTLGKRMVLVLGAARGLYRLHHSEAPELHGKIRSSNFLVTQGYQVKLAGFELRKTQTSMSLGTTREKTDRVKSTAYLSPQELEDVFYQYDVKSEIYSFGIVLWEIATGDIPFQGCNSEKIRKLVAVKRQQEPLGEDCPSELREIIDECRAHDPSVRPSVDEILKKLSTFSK

Chain of TYK2(JH2) (P29597 575-869): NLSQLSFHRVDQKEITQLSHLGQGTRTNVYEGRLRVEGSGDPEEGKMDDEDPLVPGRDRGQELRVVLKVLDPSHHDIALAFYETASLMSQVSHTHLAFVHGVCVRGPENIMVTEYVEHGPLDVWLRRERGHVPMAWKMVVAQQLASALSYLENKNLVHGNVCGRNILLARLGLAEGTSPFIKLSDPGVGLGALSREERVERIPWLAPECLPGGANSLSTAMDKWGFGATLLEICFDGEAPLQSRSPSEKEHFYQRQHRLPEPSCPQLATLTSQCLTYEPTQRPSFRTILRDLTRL
Chain of ULK4 (unc-51 like kinase 4) (Q96C45 1-288 limits assumed): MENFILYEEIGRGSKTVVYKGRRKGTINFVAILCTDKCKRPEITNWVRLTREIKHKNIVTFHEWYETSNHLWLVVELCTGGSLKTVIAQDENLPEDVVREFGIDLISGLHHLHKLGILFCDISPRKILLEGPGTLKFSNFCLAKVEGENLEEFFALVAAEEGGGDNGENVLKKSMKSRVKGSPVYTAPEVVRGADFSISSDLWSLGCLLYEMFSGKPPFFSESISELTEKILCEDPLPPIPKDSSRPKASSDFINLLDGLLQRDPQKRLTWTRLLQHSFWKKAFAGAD

## NCc1ccc(Nc2ncc(F)c(Nc3ccccc3)n2)cc1 [DAP, N′2′-(4-aminomethyl-phenyl)-5-fluoro-N′4′-phenyl-pyrimidine-2,4-diamine]
TYK2(JH2)
  thermal-shift assay (40 μM ligand, ΔTm ≥3 °C): consistent with the binding to the small-molecule kinase inhibitors DAP and VI16832 observed in the present study (Figure 2E)

## Nc1ncnc2c1ncn2[C@@H]1O[C@H](COP(=O)(O)OP(=O)(O)OP(=O)(O)O)[C@@H](O)[C@H]1O [ATP]
[1]
  thermal-shift assay (0.2 mM nucleotide): we observed that ATP binding was still accomplished by EphB6 and ULK4 (Figures 3C and 3E)
[2]
  thermal-shift assay (0.2 mM nucleotide): we observed that ATP binding was still accomplished by EphB6 and ULK4 (Figures 3C and 3E)
[3]
  Kd: ~15 µM
